Measured values from patent US20240245677A1, “SELECTED COMPOUNDS FOR TARGETED DEGRADATION OF BRD9” (C4 THERAPEUTICS, INC., priority 2021, published 2024).
Where two headings read alike, the source gives them in different places.

Key:
[1] = target: T1, GSPT1 (Homo sapiens, UniProt P15170+Q96SW2); assay: GSPT1 HiBiT degradation assay in HEK293T.114 cells; type: cell-based; conditions: 6 hours
T1 construct: CRISPR-edited to endogenously express HiBiT tagged GSPT1; host or cells: HEK293T.114
Excerpt: This assay evaluated the off-target degradation of the cereblon neosubstrate, Eukaryotic peptide chain release factor GTP-binding subunit ERF3A (GSPT1), induced by treatment with Compound 1 as measured by luminescence using Nano-Glo HiBiT® Lytic Assay System in 293T cells CRISPR-edited to endogenously express HiBiT tagged GSPT1.
Nano-Glo® HiBiT Lytic Assay System was purchased from Promega (Catalog No. N3050, Madison, WI, USA). HEK293T cells were obtained from ATCC (Catalog No. CRL-3216, Manassas, VA, USA), and maintained in DMEM medium (Catalog No. 11995065, ThermoFischer Scientific, Waltham, MA, USA) supplemented with 10% heat inactivated FBS (Catalog No. 16000-044, Gibco, Grand Island, NY, USA) at 37° C. in an atmosphere of 5% CO2 in air. The HiBiT polypeptide tag was introduced into the N-terminus of the endogenous GSPT1 locus by CRISPR-Cas9 to produce the HEK293T.114 modified cell line. The HiBiT polypeptide allows reconstitution of NanoBiT enzyme following cell lysis and addition of the complementing LgBiT polypeptide that activates substrate to produce a luminescent signal that is directly proportional to the amount of HiBiT-tagged GSPT1.
HEK293T.114 cells were routinely sub-cultured to maintain cell density between 30-80% confluence, not to exceed 20 passages. Cells were washed with PBS, trypsinized for 5 minutes at 37° C., and resuspended in fresh growth media without phenol red. An aliquot was diluted 2× with Trypan Blue solution 0.4% (Catalog No. 15250061, ThermoFisher Scientific, Waltham, MA, USA) and cell count determined. Cell concentration was adjusted with growth media without phenol red to 2×10^5 cells/mL.
The 10 mM DMSO stock solutions of Compound 1 or CC0885 were serially diluted (half log) in DMSO to generate 11-point dose series (10000, 3160, 1000, 316, 100, 31.6, 10, 3.2, 1, 0.32, 0.1 μM) in an acoustic ready 384-well low dead volume microplate (Catalog No. LP-0200, Beckman Coulter Life Sciences, Indianapolis, IN, USA). Using an Echo 550 Acoustic Liquid Handler (Beckman Coulter Life Sciences, Indianapolis, IN, USA), 30 nL of serially diluted compound solutions were dispensed in duplicate to each 384-well black TC-treated microplate (Catalog No. 3571, Corning, Glendale, CA, USA). 30 nL DMSO was transferred to all control wells.
30 μL of HEK293T.114 cells suspended in growth media without phenol red at 2×10^5 cells/mL (6000 cells/well) were dispensed using a Multidrop Combi Reagent Dispenser (Catalog No. 5840300, ThermoFisher Scientific, Waltham, MA, USA) to each well of columns 1-23 of 384-well black TC-treated microplates containing duplicate concentration range of test compounds and DMSO controls. 30 μL of media was dispensed to column 24 as background positive control (P). Plates were spun briefly at 1000 rpm and cells were incubated at 37° C., 5% CO2 for 6 hours. Final concentration of DMSO was 0.1% for all samples.
Cellular GSPT1 protein level was determined based on quantification of HiBiT using Nano-Glo® HiBiT Lytic Assay System (Promega). 30 μL Nano-Glo Lytic Assay reagents were added to each well of columns 1-23 and luminescence was acquired on EnVision® Multilabel Reader (Catalog No. 2104-0010, Perkin Elmer Inc., Dumfries, VA, USA). Column 24 (cells without Nano-Glo reagent addition) was used as plate background or positive control (P). Cells treated in the absence of the test compound (0.1% DMSO vehicle) were the negative control (N)/
Percent response of compound-treated samples (T) were calculated by normalizing to the DMSO treated negative (N) controls on the same microtiter plate after background (i.e., positive control) signal subtraction:
Curve fit and DC50 (concentration that degrades 50% GSPT1) determination was performed by 4 parametric logistic fit analysis using software such as GraphPad Prism software (GraphPad Software, LLC, San Diego, CA, USA). […]

[2] = target: T2, BRD7 (Homo sapiens, UniProt Q9NPI1); assay: BRD7 HiBiT degradation assay in HEK293T.167 cells; type: cell-based
T2 construct: endogenously expressing BRD7 with HiBiT fusion tag via CRISPR; host or cells: HEK293T.167 (293T.167, BRD7-HiBiT HEK293, LgBiT by lentivirus)
T2 sequence (Q9NPI1 1-651): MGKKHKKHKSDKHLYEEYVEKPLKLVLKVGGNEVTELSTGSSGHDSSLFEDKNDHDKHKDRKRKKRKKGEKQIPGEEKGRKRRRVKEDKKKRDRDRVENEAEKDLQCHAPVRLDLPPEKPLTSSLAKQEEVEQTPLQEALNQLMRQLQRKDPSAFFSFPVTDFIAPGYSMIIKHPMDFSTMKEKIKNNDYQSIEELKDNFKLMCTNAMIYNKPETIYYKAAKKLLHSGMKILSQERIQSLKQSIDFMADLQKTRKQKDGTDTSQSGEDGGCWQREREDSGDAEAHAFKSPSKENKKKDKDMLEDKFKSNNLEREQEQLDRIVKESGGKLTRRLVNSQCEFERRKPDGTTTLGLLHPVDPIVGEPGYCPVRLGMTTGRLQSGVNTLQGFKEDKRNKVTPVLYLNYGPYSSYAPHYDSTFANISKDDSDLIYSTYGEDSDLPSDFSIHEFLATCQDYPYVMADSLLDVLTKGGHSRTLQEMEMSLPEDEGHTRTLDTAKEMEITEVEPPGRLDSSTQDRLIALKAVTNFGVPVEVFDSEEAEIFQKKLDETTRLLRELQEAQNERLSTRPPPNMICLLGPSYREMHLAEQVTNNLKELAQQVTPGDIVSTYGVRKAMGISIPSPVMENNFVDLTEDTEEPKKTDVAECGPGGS

T1 sequence (P15170 whole entry): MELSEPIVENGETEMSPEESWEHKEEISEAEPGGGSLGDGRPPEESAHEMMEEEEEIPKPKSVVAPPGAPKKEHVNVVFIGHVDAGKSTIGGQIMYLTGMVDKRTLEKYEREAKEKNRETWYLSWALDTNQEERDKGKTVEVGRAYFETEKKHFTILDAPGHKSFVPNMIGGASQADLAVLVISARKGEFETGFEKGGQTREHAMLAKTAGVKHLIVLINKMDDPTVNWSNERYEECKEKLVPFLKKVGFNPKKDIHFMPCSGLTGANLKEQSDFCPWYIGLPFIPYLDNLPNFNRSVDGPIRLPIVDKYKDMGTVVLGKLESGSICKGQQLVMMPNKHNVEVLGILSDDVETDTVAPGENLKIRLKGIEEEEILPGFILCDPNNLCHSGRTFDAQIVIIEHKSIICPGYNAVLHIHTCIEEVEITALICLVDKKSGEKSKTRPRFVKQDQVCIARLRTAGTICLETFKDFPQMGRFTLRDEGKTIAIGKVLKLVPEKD
T1 sequence (Q96SW2 whole entry): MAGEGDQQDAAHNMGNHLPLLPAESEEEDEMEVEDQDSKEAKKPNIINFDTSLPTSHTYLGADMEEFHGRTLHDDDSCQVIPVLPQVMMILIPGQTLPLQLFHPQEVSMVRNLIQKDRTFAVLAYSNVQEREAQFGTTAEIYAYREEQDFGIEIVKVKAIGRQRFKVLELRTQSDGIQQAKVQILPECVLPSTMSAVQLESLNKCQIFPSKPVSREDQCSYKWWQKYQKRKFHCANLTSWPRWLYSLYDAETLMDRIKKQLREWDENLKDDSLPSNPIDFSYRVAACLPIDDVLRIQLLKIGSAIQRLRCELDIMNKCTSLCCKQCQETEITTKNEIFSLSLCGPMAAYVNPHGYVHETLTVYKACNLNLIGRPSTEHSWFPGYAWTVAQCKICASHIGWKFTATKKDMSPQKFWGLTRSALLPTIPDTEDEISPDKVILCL
T1 sequence (Q16531 2-1140 partner limits assumed): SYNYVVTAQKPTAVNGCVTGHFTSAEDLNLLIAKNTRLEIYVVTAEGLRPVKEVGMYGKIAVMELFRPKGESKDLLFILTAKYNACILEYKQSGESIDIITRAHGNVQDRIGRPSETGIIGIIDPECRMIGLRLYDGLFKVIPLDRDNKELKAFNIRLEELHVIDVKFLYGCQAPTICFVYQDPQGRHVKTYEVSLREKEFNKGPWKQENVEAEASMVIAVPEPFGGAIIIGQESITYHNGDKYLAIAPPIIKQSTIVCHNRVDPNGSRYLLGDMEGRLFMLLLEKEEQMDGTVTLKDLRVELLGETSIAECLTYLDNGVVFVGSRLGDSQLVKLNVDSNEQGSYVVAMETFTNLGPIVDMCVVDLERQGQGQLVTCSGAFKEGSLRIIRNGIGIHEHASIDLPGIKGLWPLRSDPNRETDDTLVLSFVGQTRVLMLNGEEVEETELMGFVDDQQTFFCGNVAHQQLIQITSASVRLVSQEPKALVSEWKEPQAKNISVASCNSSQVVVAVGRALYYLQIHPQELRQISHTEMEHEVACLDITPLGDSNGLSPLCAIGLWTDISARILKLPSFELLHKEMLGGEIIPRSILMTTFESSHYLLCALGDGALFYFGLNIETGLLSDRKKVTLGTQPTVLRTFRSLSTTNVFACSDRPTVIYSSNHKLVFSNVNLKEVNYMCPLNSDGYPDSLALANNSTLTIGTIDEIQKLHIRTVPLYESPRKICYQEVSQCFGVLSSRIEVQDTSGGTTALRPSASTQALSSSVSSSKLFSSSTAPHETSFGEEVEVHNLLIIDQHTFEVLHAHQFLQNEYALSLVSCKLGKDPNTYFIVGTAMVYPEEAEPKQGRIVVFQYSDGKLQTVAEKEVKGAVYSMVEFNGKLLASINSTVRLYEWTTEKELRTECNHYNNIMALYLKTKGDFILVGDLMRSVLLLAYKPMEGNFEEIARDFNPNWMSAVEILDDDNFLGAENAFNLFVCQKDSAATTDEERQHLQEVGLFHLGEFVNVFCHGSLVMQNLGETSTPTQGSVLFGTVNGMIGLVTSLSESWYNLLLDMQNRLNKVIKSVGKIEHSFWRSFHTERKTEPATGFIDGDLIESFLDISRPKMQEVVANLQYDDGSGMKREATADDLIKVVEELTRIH

SMILES: COc1cc(-c2cn(C)c(=O)c(C)c2C)cc(OC)c1CN1CC[C@H](N2CCN(c3ccc(N[C@H]4CCC(=O)NC4=O)cc3F)CC2)C(F)(F)C1 [Compound 1, (S)-3-((4-(4-((S)-1-(2,6-dimethoxy-4-(1,4,5-trimethyl-6-oxo-1,6-dihydropyridin-3-yl)benzyl)-3,3-difluoropiperidin-4-yl)piperazin-1-yl)-3-fluorophenyl)amino)-piperidine-2,6-dione]
- % GSPT1 Remaining, Mean ([1]; 0.100 nM): 97.4%
- % GSPT1 Remaining, Mean ([1]; 0.316 nM): 86.7%
- % GSPT1 Remaining, Mean ([1]; 1.00 nM): 70.8%
- % GSPT1 Remaining, Mean ([1]; 3.15 nM): 34.4%
- % GSPT1 Remaining, Mean ([1]; 10.0 nM): 12.4%
- % GSPT1 Remaining, Mean ([1]; 31.5 nM): 6.0%
- % GSPT1 Remaining, Mean ([1]; 100 nM): 4.0%
- % GSPT1 Remaining, Mean ([1]; 317 nM): 3.5%
- % GSPT1 Remaining, Mean ([1]; 1000 nM): 3.2%
- % GSPT1 Remaining, Mean ([1]; 3161 nM): 3.0%
- % GSPT1 Remaining, Mean ([1]; 9990 nM): 3.8%
- DC50 ([1]; GSPT1-HiBiT, HEK293T.114 cells, read-out: Geometric Mean DC50): > 10 µM
- Emax ([1]; GSPT1-HiBiT, HEK293T.114 cells, read-out: Mean Emax (%) ± SD): 93.9 ± 5.85%
- effect on degradation of GSPT1 ([1]; concentrations up to 10 μM): no significant effect
- % BRD7 Remaining Relative to Vehicle Control at 24 hr, Mean ([2]; 0.101 nM): 99.8%
- % BRD7 Remaining Relative to Vehicle Control at 24 hr, Mean ([2]; 0.318 nM): 101.3%
- % BRD7 Remaining Relative to Vehicle Control at 24 hr, Mean ([2]; 1.01 nM): 101.0%
- % BRD7 Remaining Relative to Vehicle Control at 24 hr, Mean ([2]; 3.17 nM): 99.8%
- % BRD7 Remaining Relative to Vehicle Control at 24 hr, Mean ([2]; 10.0 nM): 102.4%
- % BRD7 Remaining Relative to Vehicle Control at 24 hr, Mean ([2]; 31.7 nM): 103.4%
- % BRD7 Remaining Relative to Vehicle Control at 24 hr, Mean ([2]; 100 nM): 101.0%
- % BRD7 Remaining Relative to Vehicle Control at 24 hr, Mean ([2]; 317 nM): 102.3%
- % BRD7 Remaining Relative to Vehicle Control at 24 hr, Mean ([2]; 1000 nM): 106.3%
- % BRD7 Remaining Relative to Vehicle Control at 24 hr, Mean ([2]; 3161 nM): 117.4%
- % BRD7 Remaining Relative to Vehicle Control at 24 hr, Mean ([2]; 9990 nM): 143.3%
- DC50 ([2]; BRD7-HiBiT, 293T.167 cells, 24 hours, read-out: Mean DC50): > 10 µM
- Emax ([2]; BRD7-HiBiT, 293T.167 cells, 24 hours, read-out: Mean Emax (%) ± SD): 97.6 ± 6.41%
- effect on the degradation of BRD7 ([2]; concentrations up to 10 μM, 24 hours): no significant effect
- DC50 ([2]; summary statement, read-out: DC50 against BRD7): > 1 µM
